# Experimental data from patent US20120041172A1, “METHOD FOR THE MANUFACTURE OF DEGARELIX” (Polypeptide Laboratories A/S, priority 2009, published 2012).
# Non-standard residues stand in square brackets, D forms with d. Residues, ends and D or L forms follow the SMILES beside them. *: point of attachment. dPhe(4-NHCONH2) = NC(=O)Nc1ccc(C[C@@H](N)C(=O)O)cc1; Dihydroorotyl(S) = O=C1C[C@@H](C(=O)*)NC(=O)N1; dPhe(4-Cl) = N[C@H](Cc1ccc(Cl)cc1)C(=O)O; Phe(4-NH2) = Nc1ccc(C[C@H](N)C(=O)O)cc1; d2Nal = N[C@H](Cc1ccc2ccccc2c1)C(=O)O; Lys(iPr) = CC(C)NCCCC[C@H](N)C(=O)O; d3Pal = N[C@H](Cc1cccnc1)C(=O)O
# What was measured:
# [1] = Stability of degarelix in DBU/DMF and piperidine/DMF (Fmoc-removal conditions), HPLC; format: physicochemical; conditions: 20 h
# Description: Stability of degarelix in DBU/DMF and piperidine/DMF. The stability of degarelix was tested under conditions corresponding to those used for removal of the Fmoc-group during SPPS. The hydroorotic group in the side chain of 4Aph(Hor), amino acid residue no. 5 in the sequence of degarelix, is known to be sensitive to base and rearrange to a hydantoinacetyl group. All SPPS procedures known to the inventors had been based on Boc-chemistry.
# Samples of degarelix were dissolved in 20% piperidine/DMF; 2% DBU in DMF, and 2% DBU+5% water in DMF; respectively. The samples were analysed by HPLC after 20 h and the amount of the hydantoin analogue determined.
# If 5% water was present, too (simulating wet DMF), the amount was increased to 7%.
# [2] = Instability of the hydroorotic moiety under basic conditions (DCHA in wet 2-BuOH); format: physicochemical; conditions: 67 mM in wet 2-BuOH with 167 mM (2.5 eq) DCHA, 31° C, after 25 h
# Description: The following experiment provided further proof of the instability of the hydrooroic moiety under basic conditions. Z-Ser(tBu)-4Aph(Hor)-D-4Aph(tBu-Cbm)-Leu-OH.DCHA (67 mM) was dissolved in wet 2-BuOH with 167 mM (2.5 eq) DCHA at 31° C. After 25 h, 1.3% of the hydantoin analogue and 0.3% of the hydrolysed intermediate had been formed.
amount of the hydantoin analogue formed ([1]; 2% DBU + 5% water in DMF (simulating wet DMF)),amount of the hydantoin analogue formed ([1]; 2% DBU in DMF),hydantoin analogue formed [2],hydrolysed intermediate formed [2],Compound,formation of the hydantoin analogue ([1]; 20% piperidine in DMF)
7%,1.8%,,,"CC(=O)N[C@H](Cc1ccc2ccccc2c1)C(=O)N[C@H](Cc1ccc(Cl)cc1)C(=O)N[C@H](Cc1cccnc1)C(=O)N[C@@H](CO)C(=O)N[C@@H](Cc1ccc(NC(=O)[C@@H]2CC(=O)NC(=O)N2)cc1)C(=O)N[C@H](Cc1ccc(NC(N)=O)cc1)C(=O)N[C@@H](CC(C)C)C(=O)N[C@@H](CCCCNC(C)C)C(=O)N1CCC[C@H]1C(=O)N[C@H](C)C(N)=O [degarelix, Ac-D-2Nal-D-Phe(4Cl)-D-3 Pal-Ser-4Aph(Hor)-D-4Aph(Cbm)-Leu-ILys-Pro-D-Ala-NH2] (Ac-[d2Nal][dPhe(4-Cl)][d3Pal]S[Phe(4-NH2)](Dihydroorotyl(S))[dPhe(4-NHCONH2)]L[Lys(iPr)]P[dA]-NH2)",did not result in any formation of the hydantoin analogue
,,1.3%,0.3%,Z-Ser(tBu)-4Aph(Hor)-D-4Aph(tBu-Cbm)-Leu-OH.DCHA,
